Laboratory results reported in ChEMBL document CHEMBL3044670, “Aromatic sulfonyl hydrazides and sulfonyl hydrazones: antimicrobial activity and physical properties” (2013).
Converted amounts (≈) assume the structure as drawn.

How the values were obtained:
Assay type in all cases: functional
Pseudomonas aeruginosa [1] = assay: Antibacterial activity against Pseudomonas aeruginosa ATCC 27853 after 18 to 24 hr by broth microdilution method
Escherichia coli [2] = assay: Antibacterial activity against Escherichia coli ATCC 25922 after 18 to 24 hr by broth microdilution method
Klebsiella pneumoniae [3] = assay: Antibacterial activity against Klebsiella pneumoniae ATCC 13883 after 18 to 24 hr by broth microdilution method
Pseudomonas fluorescens [4] = assay: Antibacterial activity against Pseudomonas fluorescens ATCC 49838 after 18 to 24 hr by broth microdilution method
Klebsiella aerogenes [5] = assay: Antibacterial activity against Enterobacter aerogenes ATCC 13048 after 18 to 24 hr by broth microdilution method
[6] = system: Staphylococcus epidermidis; assay: Antibacterial activity against Staphylococcus epidermidis ATCC 12228 after 18 to 24 hr by broth microdilution method
Enterococcus faecalis [7] = assay: Antibacterial activity against Enterococcus faecalis ATCC 29212 after 18 to 24 hr by broth microdilution method
Bacillus subtilis [8] = assay: Antibacterial activity against Bacillus subtilis ATCC 6633 at 30 ug/disk after 18 to 24 hr by disk diffusion method; details: read-out: DIZ
Bacillus cereus [9] = assay: Antibacterial activity against Bacillus cereus ATCC 11778 at 30 ug/disk after 18 to 24 hr by disk diffusion method; details: read-out: DIZ
Enterococcus faecalis [10] = assay: Antibacterial activity against Enterococcus faecalis ATCC 29212 at 30 ug/disk after 18 to 24 hr by disk diffusion method; details: read-out: DIZ
Staphylococcus aureus [11] = assay: Antibacterial activity against Staphylococcus aureus ATCC 25923 at 30 ug/disk after 18 to 24 hr by disk diffusion method; details: read-out: DIZ
Candida albicans [12] = assay: Antifungal activity against Candida albicans ATCC 90028 at 30 ug/disk after 18 to 24 hr by disk diffusion method; details: read-out: DIZ
Pseudomonas aeruginosa [13] = assay: Antibacterial activity against Pseudomonas aeruginosa ATCC 27853 at 30 ug/disk after 18 to 24 hr by disk diffusion method; details: read-out: DIZ
Escherichia coli [14] = assay: Antibacterial activity against Escherichia coli ATCC 25922 at 30 ug/disk after 18 to 24 hr by disk diffusion method; details: read-out: DIZ
Klebsiella pneumoniae [15] = assay: Antibacterial activity against Klebsiella pneumoniae ATCC 13883 at 30 ug/disk after 18 to 24 hr by disk diffusion method; details: read-out: DIZ
Klebsiella aerogenes [16] = assay: Antibacterial activity against Enterobacter aerogenes ATCC 13048 at 30 ug/disk after 18 to 24 hr by disk diffusion method; details: read-out: DIZ
Pseudomonas fluorescens [17] = assay: Antibacterial activity against Pseudomonas fluorescens ATCC 49838 at 30 ug/disk after 18 to 24 hr by disk diffusion method; details: read-out: DIZ
[18] = system: Staphylococcus epidermidis; assay: Antibacterial activity against Staphylococcus epidermidis ATCC 12228 at 30 ug/disk after 18 to 24 hr by disk diffusion method; details: read-out: DIZ
Bacillus subtilis [19] = assay: Antibacterial activity against Bacillus subtilis ATCC 6633 after 18 to 24 hr by broth microdilution method
Escherichia coli [20] = assay: Antibacterial activity against Escherichia coli ATCC 25922 at 140 ug/disk after 18 to 24 hr by disk diffusion method; details: read-out: DIZ
Klebsiella pneumoniae [21] = assay: Antibacterial activity against Klebsiella pneumoniae ATCC 13883 at 140 ug/disk after 18 to 24 hr by disk diffusion method; details: read-out: DIZ
Pseudomonas fluorescens [22] = assay: Antibacterial activity against Pseudomonas fluorescens ATCC 49838 at 140 ug/disk after 18 to 24 hr by disk diffusion method; details: read-out: DIZ
Klebsiella aerogenes [23] = assay: Antibacterial activity against Enterobacter aerogenes ATCC 13048 at 140 ug/disk after 18 to 24 hr by disk diffusion method; details: read-out: DIZ
[24] = system: Staphylococcus epidermidis; assay: Antibacterial activity against Staphylococcus epidermidis ATCC 12228 at 140 ug/disk after 18 to 24 hr by disk diffusion method; details: read-out: DIZ
Bacillus subtilis [25] = assay: Antibacterial activity against Bacillus subtilis ATCC 6633 at 140 ug/disk after 18 to 24 hr by disk diffusion method; details: read-out: DIZ
Enterococcus faecalis [26] = assay: Antibacterial activity against Enterococcus faecalis ATCC 29212 at 140 ug/disk after 18 to 24 hr by disk diffusion method; details: read-out: DIZ
Bacillus cereus [27] = assay: Antibacterial activity against Bacillus cereus ATCC 11778 at 140 ug/disk after 18 to 24 hr by disk diffusion method; details: read-out: DIZ
Staphylococcus aureus [28] = assay: Antibacterial activity against Staphylococcus aureus ATCC 25923 at 140 ug/disc after 18 to 24 hr by disk diffusion method; details: read-out: DIZ
Candida albicans [29] = assay: Antifungal activity against Candida albicans ATCC 90028 after 18 to 24 hr by broth microdilution method
Bacillus cereus [30] = assay: Antibacterial activity against Bacillus cereus ATCC 11778 after 18 to 24 hr by broth microdilution method
Staphylococcus aureus [31] = assay: Antibacterial activity against Staphylococcus aureus ATCC 25923 after 18 to 24 hr by broth microdilution method
Candida albicans [32] = assay: Antifungal activity against Candida albicans ATCC 90028 at 140 ug/disk after 18 to 24 hr by disk diffusion method; details: read-out: DIZ
Pseudomonas aeruginosa [33] = assay: Antibacterial activity against Pseudomonas aeruginosa ATCC 27853 at 140 ug/disk after 18 to 24 hr by disk diffusion method; details: read-out: DIZ

| SMILES | MIC (Pseudomonas aeruginosa [1]) | MIC (Escherichia coli [2]) | MIC (Klebsiella pneumoniae [3]) | MIC (Pseudomonas fluorescens [4]) | MIC (Klebsiella aerogenes [5]) | MIC [6] | MIC (Enterococcus faecalis [7]) | MIC (Bacillus subtilis [19]) | MIC (Candida albicans [29]) | MIC (Bacillus cereus [30]) | MIC (Staphylococcus aureus [31]) | zone of inhibition at 140 µg/disc (Escherichia coli [20]) | zone of inhibition at 140 µg/disc (Klebsiella pneumoniae [21]) | zone of inhibition at 140 µg/disc (Pseudomonas fluorescens [22]) | zone of inhibition at 140 µg/disc (Klebsiella aerogenes [23]) | zone of inhibition at 140 µg/disc [24] | zone of inhibition at 140 µg/disc (Bacillus subtilis [25]) | zone of inhibition at 140 µg/disc (Enterococcus faecalis [26]) | zone of inhibition at 140 µg/disc (Bacillus cereus [27]) | zone of inhibition at 140 µg/disc (Staphylococcus aureus [28]) | further results |
| --- | --- | --- | --- | --- | --- | --- | --- | --- | --- | --- | --- | --- | --- | --- | --- | --- | --- | --- | --- | --- | --- |
| CN(/N=C/c1cccs1)S(=O)(=O)c1ccccc1 | 125 µg/mL (≈ 446 µM) | 125 µg/mL (≈ 446 µM) | 125 µg/mL (≈ 446 µM) | 125 µg/mL (≈ 446 µM) | 250 µg/mL (≈ 892 µM) | 125 µg/mL (≈ 446 µM) | 1000 µg/mL (≈ 3570 µM) | 125 µg/mL (≈ 446 µM) | 1000 µg/mL (≈ 3570 µM) | 250 µg/mL (≈ 892 µM) | 250 µg/mL (≈ 892 µM) | 17 mm | 21 mm | 25 mm | 17 mm | 15 mm | 24 mm | 0 mm | 25 mm | 12 mm | zone of inhibition at 140 µg/disc (Candida albicans [32]): 0 mm; zone of inhibition at 140 µg/disc (Pseudomonas aeruginosa [33]): 24 mm |
| COc1cc(Cc2cnc(N)nc2N)cc(OC)c1OC [TRIMETHOPRIM] | 1 µg/mL (≈ 3.44 µM) |  | 1 µg/mL (≈ 3.44 µM) | 1 µg/mL (≈ 3.44 µM) | 1 µg/mL (≈ 3.44 µM) |  | 0.5 µg/mL (≈ 1.72 µM) | 1 µg/mL (≈ 3.44 µM) |  |  | 1 µg/mL (≈ 3.44 µM) |  |  |  |  |  |  |  |  |  | zone of inhibition at 30 µg/disc (Bacillus subtilis [8]): 20 mm; zone of inhibition at 30 µg/disc (Bacillus cereus [9]): 0 mm; zone of inhibition at 30 µg/disc (Enterococcus faecalis [10]): 27 mm; zone of inhibition at 30 µg/disc (Staphylococcus aureus [11]): 37 mm; zone of inhibition at 30 µg/disc (Candida albicans [12]): 0 mm; zone of inhibition at 30 µg/disc (Pseudomonas aeruginosa [13]): 31 mm; zone of inhibition at 30 µg/disc (Escherichia coli [14]): 0 mm; zone of inhibition at 30 µg/disc (Klebsiella pneumoniae [15]): 0 mm; zone of inhibition at 30 µg/disc (Klebsiella aerogenes [16]): 28 mm; zone of inhibition at 30 µg/disc (Pseudomonas fluorescens [17]): 0 mm; zone of inhibition at 30 µg/disc [18]: 29 mm |

Second part, led by results:

| MIC (Pseudomonas aeruginosa [1]) | MIC (Escherichia coli [2]) | MIC (Klebsiella pneumoniae [3]) | MIC (Pseudomonas fluorescens [4]) | MIC (Klebsiella aerogenes [5]) | MIC [6] | MIC (Enterococcus faecalis [7]) | MIC (Bacillus subtilis [19]) | MIC (Candida albicans [29]) | MIC (Bacillus cereus [30]) | MIC (Staphylococcus aureus [31]) | SMILES | zone of inhibition at 140 µg/disc (Escherichia coli [20]) | zone of inhibition at 140 µg/disc (Klebsiella pneumoniae [21]) | zone of inhibition at 140 µg/disc (Pseudomonas fluorescens [22]) | zone of inhibition at 140 µg/disc (Klebsiella aerogenes [23]) | zone of inhibition at 140 µg/disc [24] | zone of inhibition at 140 µg/disc (Bacillus subtilis [25]) | zone of inhibition at 140 µg/disc (Enterococcus faecalis [26]) | zone of inhibition at 140 µg/disc (Bacillus cereus [27]) | zone of inhibition at 140 µg/disc (Staphylococcus aureus [28]) | further results |
| --- | --- | --- | --- | --- | --- | --- | --- | --- | --- | --- | --- | --- | --- | --- | --- | --- | --- | --- | --- | --- | --- |
| 0.125 µg/mL (≈ 0.281 µM) | 0.075 µg/mL (≈ 0.169 µM) | 0.15 µg/mL (≈ 0.338 µM) | 0.125 µg/mL (≈ 0.281 µM) | 0.15 µg/mL (≈ 0.338 µM) | 0.125 µg/mL (≈ 0.281 µM) | 0.625 µg/mL (≈ 1.41 µM) | 0.075 µg/mL (≈ 0.169 µM) |  |  |  | CN(C)[C@@H]1C(O)=C(C(N)=O)C(=O)[C@@]2(O)C(O)=C3C(=O)c4c(O)cccc4[C@@](C)(O)[C@H]3C[C@@H]12 [TETRACYCLINE] |  |  |  |  |  |  |  |  |  | zone of inhibition at 30 µg/disc (Bacillus subtilis [8]): 26 mm; zone of inhibition at 30 µg/disc (Bacillus cereus [9]): 19 mm; zone of inhibition at 30 µg/disc (Enterococcus faecalis [10]): 0 mm; zone of inhibition at 30 µg/disc (Staphylococcus aureus [11]): 0 mm; zone of inhibition at 30 µg/disc (Candida albicans [12]): 0 mm; zone of inhibition at 30 µg/disc (Pseudomonas aeruginosa [13]): 23 mm; zone of inhibition at 30 µg/disc (Escherichia coli [14]): 23 mm; zone of inhibition at 30 µg/disc (Klebsiella pneumoniae [15]): 12 mm; zone of inhibition at 30 µg/disc (Klebsiella aerogenes [16]): 0 mm; zone of inhibition at 30 µg/disc (Pseudomonas fluorescens [17]): 19 mm; zone of inhibition at 30 µg/disc [18]: 19 mm |
| 1000 µg/mL (≈ 3290 µM) | 1000 µg/mL (≈ 3290 µM) | 1000 µg/mL (≈ 3290 µM) | 1000 µg/mL (≈ 3290 µM) | 1000 µg/mL (≈ 3290 µM) | 500 µg/mL (≈ 1640 µM) | 1000 µg/mL (≈ 3290 µM) | 500 µg/mL (≈ 1640 µM) | 500 µg/mL (≈ 1640 µM) | 500 µg/mL (≈ 1640 µM) | 500 µg/mL (≈ 1640 µM) | C/C(=N\N(C)S(=O)(=O)c1ccccc1)c1ccccc1O | 11 mm | 6 mm | 11 mm | 5 mm | 12 mm | 9 mm | 9 mm | 10 mm | 10 mm | zone of inhibition at 140 µg/disc (Candida albicans [32]): 12 mm; zone of inhibition at 140 µg/disc (Pseudomonas aeruginosa [33]): 5 mm |
| 1000 µg/mL (≈ 4340 µM) | 1000 µg/mL (≈ 4340 µM) | > 2000 µg/mL | 1000 µg/mL (≈ 4340 µM) | 1000 µg/mL (≈ 4340 µM) | > 2000 µg/mL | > 2000 µg/mL | > 2000 µg/mL | 1000 µg/mL (≈ 4340 µM) | > 2000 µg/mL | > 2000 µg/mL | NCC(O)CNS(=O)(=O)c1ccccc1 (stereo not drawn) | 0 mm | 0 mm | 0 mm | 0 mm | 0 mm | 0 mm | 0 mm | 0 mm | 0 mm | zone of inhibition at 140 µg/disc (Candida albicans [32]): 0 mm; zone of inhibition at 140 µg/disc (Pseudomonas aeruginosa [33]): 0 mm |
